According to PMC11576293, “New series of 4,6-diaryl pyrimidines: facile synthesis and antiproliferative activity as dual EGFR/VEGFR-2 inhibitors” (Frontiers in Chemistry, 2024):

Assays:
Experiment in all cases: NCI-60 single-dose screen
Format in all cases: cell-based
[1] = test system: IGROV1; settings: Homo sapiens, IGROV-1, single dose 10 µM, '-' = no inhibition, read-out: % Growth Inhibition
Summary of the method: (§1)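 Was run as a one-dose (10 μM) screen by the NCI Developmental Therapeutics Program, covering 60 tumour cell lines from nine cancer types including renal, melanoma and CNS.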

[2] = test system: HCC-2998; settings: Homo sapiens, single dose 10 µM, '-' = no inhibition, read-out: % Growth Inhibition
Summary of the method: as §1

[3] = test system: TK-10; settings: Homo sapiens, single dose 10 µM, '-' = no inhibition, read-out: % Growth Inhibition
Summary of the method: as §1

[4] = test system: SK-MEL-2; settings: Homo sapiens, single dose 10 µM, '-' = no inhibition, read-out: % Growth Inhibition
Summary of the method: as §1

[5] = test system: NCI-H522; settings: Homo sapiens, single dose 10 µM, '-' = no inhibition, read-out: % Growth Inhibition
Summary of the method: as §1

[6] = test system: OVCAR-5; settings: Homo sapiens, single dose 10 µM, '-' = no inhibition, read-out: % Growth Inhibition
Summary of the method: as §1

[7] = test system: HOP-62; settings: Homo sapiens, single dose 10 µM, '-' = no inhibition, read-out: % Growth Inhibition
Summary of the method: as §1

[8] = test system: RXF 393; settings: Homo sapiens, single dose 10 µM, '-' = no inhibition, read-out: % Growth Inhibition
Summary of the method: as §1

[9] = test system: BT-549; settings: Homo sapiens, single dose 10 µM, '-' = no inhibition, read-out: % Growth Inhibition
Summary of the method: as §1

[10] = test system: UACC-62; settings: Homo sapiens, single dose 10 µM, '-' = no inhibition, read-out: % Growth Inhibition
Summary of the method: as §1

[11] = test system: HL-60(TB); settings: Homo sapiens, single dose 10 µM, '-' = no inhibition, read-out: % Growth Inhibition
[12] = test system: MDA-MB-435; settings: Homo sapiens, single dose 10 µM, '-' = no inhibition, read-out: % Growth Inhibition
Summary of the method: as §1

[13] = test system: HCT-116; settings: Homo sapiens, single dose 10 µM, '-' = no inhibition, read-out: % Growth Inhibition
Summary of the method: as §1

[14] = test system: A549/ATCC; settings: Homo sapiens, single dose 10 µM, '-' = no inhibition, read-out: % Growth Inhibition
Summary of the method: as §1

[15] = test system: RPMI-8226; settings: Homo sapiens, single dose 10 µM, '-' = no inhibition, read-out: % Growth Inhibition
Summary of the method: as §1

[16] = test system: OVCAR-4; settings: Homo sapiens, single dose 10 µM, '-' = no inhibition, read-out: % Growth Inhibition
Summary of the method: as §1

[17] = test system: EKVX; settings: Homo sapiens, single dose 10 µM, '-' = no inhibition, read-out: % Growth Inhibition
Summary of the method: as §1

[18] = test system: MCF7; settings: Homo sapiens, single dose 10 µM, '-' = no inhibition, read-out: % Growth Inhibition
Summary of the method: as §1

[19] = test system: SK-MEL-5; settings: Homo sapiens, single dose 10 µM, '-' = no inhibition, read-out: % Growth Inhibition
Summary of the method: as §1

[20] = test system: CAKI-1; settings: Homo sapiens, single dose 10 µM, '-' = no inhibition, read-out: % Growth Inhibition
Summary of the method: as §1

[21] = test system: NCI-H23; settings: Homo sapiens, single dose 10 µM, '-' = no inhibition, read-out: % Growth Inhibition
Summary of the method: as §1

[22] = test system: LOX IMVI; settings: Homo sapiens, single dose 10 µM, '-' = no inhibition, read-out: % Growth Inhibition
Summary of the method: as §1

[23] = test system: MDA-MB-468; settings: Homo sapiens, single dose 10 µM, '-' = no inhibition, read-out: % Growth Inhibition
Summary of the method: as §1

[24] = test system: OVCAR-8; settings: Homo sapiens, single dose 10 µM, '-' = no inhibition, read-out: % Growth Inhibition
Summary of the method: as §1

[25] = test system: NCI/ADR-RES; settings: Homo sapiens, single dose 10 µM, '-' = no inhibition, read-out: % Growth Inhibition
Summary of the method: as §1

[26] = test system: U251; settings: Homo sapiens, U-251, single dose 10 µM, '-' = no inhibition, read-out: % Growth Inhibition
Summary of the method: as §1

[27] = test system: OVCAR-3; settings: Homo sapiens, single dose 10 µM, '-' = no inhibition, read-out: % Growth Inhibition
Summary of the method: as §1

[28] = test system: DU-145; settings: Homo sapiens, single dose 10 µM, '-' = no inhibition, read-out: % Growth Inhibition
Summary of the method: as §1

[29] = test system: PC-3; settings: Homo sapiens, single dose 10 µM, '-' = no inhibition, read-out: % Growth Inhibition
Summary of the method: as §1

[30] = test system: SR; settings: Homo sapiens, single dose 10 µM, '-' = no inhibition, read-out: % Growth Inhibition
Summary of the method: as §1

[31] = test system: UO-31; settings: Homo sapiens, single dose 10 µM, '-' = no inhibition, read-out: % Growth Inhibition
Summary of the method: as §1

[32] = test system: NCI-H322M; settings: Homo sapiens, single dose 10 µM, '-' = no inhibition, read-out: % Growth Inhibition
Summary of the method: as §1

[33] = test system: SN12C; settings: Homo sapiens, single dose 10 µM, '-' = no inhibition, read-out: % Growth Inhibition
Summary of the method: as §1

[34] = test system: MALME-3M; settings: Homo sapiens, single dose 10 µM, '-' = no inhibition, read-out: % Growth Inhibition
Summary of the method: as §1

[35] = test system: ACHN 1; settings: Homo sapiens, single dose 10 µM, '-' = no inhibition, read-out: % Growth Inhibition
Summary of the method: as §1

[36] = test system: SF-268; settings: Homo sapiens, single dose 10 µM, '-' = no inhibition, read-out: % Growth Inhibition
Summary of the method: as §1

[37] = test system: KM12; settings: Homo sapiens, single dose 10 µM, '-' = no inhibition, read-out: % Growth Inhibition
Summary of the method: as §1

[38] = test system: SK-MEL-28; settings: Homo sapiens, single dose 10 µM, '-' = no inhibition, read-out: % Growth Inhibition
Summary of the method: as §1

[39] = test system: UACC-257; settings: Homo sapiens, single dose 10 µM, '-' = no inhibition, read-out: % Growth Inhibition
Summary of the method: as §1

[40] = test system: COLO 205; settings: Homo sapiens, single dose 10 µM, '-' = no inhibition, read-out: % Growth Inhibition
Summary of the method: as §1

[41] = test system: A498; settings: Homo sapiens, single dose 10 µM, '-' = no inhibition, read-out: % Growth Inhibition
Summary of the method: as §1

[42] = test system: HOP-92; settings: Homo sapiens, single dose 10 µM, '-' = no inhibition, read-out: % Growth Inhibition
Summary of the method: as §1

[43] = test system: K-562; settings: Homo sapiens, K562, single dose 10 µM, '-' = no inhibition, read-out: % Growth Inhibition
Summary of the method: as §1

[44] = test system: SNB-19; settings: Homo sapiens, single dose 10 µM, '-' = no inhibition, read-out: % Growth Inhibition
Summary of the method: as §1

[45] = test system: MDA-MB231/ATCC; settings: Homo sapiens, MDA-MB-231, single dose 10 µM, '-' = no inhibition, read-out: % Growth Inhibition
Summary of the method: as §1

[46] = test system: 786-0; settings: Homo sapiens, single dose 10 µM, '-' = no inhibition, read-out: % Growth Inhibition
Summary of the method: as §1

[47] = test system: NCI-H460; settings: Homo sapiens, single dose 10 µM, '-' = no inhibition, read-out: % Growth Inhibition
Summary of the method: as §1

[48] = test system: SNB-75; settings: Homo sapiens, single dose 10 µM, '-' = no inhibition, read-out: % Growth Inhibition
Summary of the method: as §1

Measured: inhibition at 10 µM

COc1ccc(-c2cc(-c3ccc(Cl)cc3)nc(SCc3ccccc3)n2)cc1 [Compound 14, 2-(Benzylthio)-4-(4-chlorophenyl)-6-(4-methoxyphenyl)pyrimidine]
3.14%: [22]
10.3%: [40]
2.5%: [6]
7.79%: [4]
11.7%: [43]
20.7%: [29]
2.76%: [17]
2.08%: [14]
6.22%: [27]
10.4%: [33]
1.74%: [28]
2.06%: [19]
2.18%: [20]
10.2%: [30]
3.68%: [12]
18.1%: [11]
11%: [35]
< 0%: all other assays above

COc1ccc(CSc2nc(-c3ccc(Cl)cc3)cc(-c3ccc(OC)cc3)n2)cc1 [Compound 15, 2-(4-Methoxybenzylthio)-4-(4-chlorophenyl)-6-(4-methoxyphenyl)pyrimidine]
12.8%: [43]
2.89%: [40]
3.01%: [11]
8.9%: [30]
15.8%: [35]
5.05%: [27]
17.5%: [29]
1.69%: [24]
4.6%: [21]
2.38%: [12]
11.3%: [33]
0.47%: [28]
< 0%: all other assays above
